Drawing on patent publication US10202391B2, “Chemical compounds” (AstraZeneca AB, priority 2015, dated 2019), this text covers Synergy score for 1 molecule.

Type in all cases: cell-based, human
Common to all, as to conditions: Example 18 with selumetinib, 6x6 dosing matrix 0-10 μmol/L, 3 days, Loewe model, average of three or more experiments

One assay has as its system A549 cell line. Description: Combination cell growth inhibition (Sytox Green, Loewe synergy), A549. From the text:
(§1) A549 is a human non small cell lung cancer line carrying an oncogenic mutation in the KRAS gene (G12S). H2122 is a human non small cell lung cancer line carrying an oncogenic mutation in the KRAS gene (G12C). H2009 is a human non small cell lung cancer line carrying an oncogenic mutation in the KRAS gene (G12A). Calu6 is a human non small cell lung cancer line carrying mutation in the KRAS ([…]) gene. All cell lines were obtained from the American Type Culture Collection.
(§2) All cell line were maintained at 37° C. and 5% CO2 in a humidified atmosphere and grown in RPMI-1640 growth media supplemented with 10% FBS and 2 mmol/L glutamine. […]
(§3) Cells were seeded in 384-well black, clear bottomed plates (Greiner Bio-One, Stonehouse, UK), cultured for 18-24 hours and treated with increasing concentrations of Example 18 and selumetinib (0-10 μmol/L) in a 6×6 dosing matrix. […] After 3 days of treatment, live cell number was determined using a Sytox Green endpoint as described previously (“Davies B R, Greenwood H, Dudley P, et al: Preclinical pharmacology of AZD5363, an inhibitor of AKT: Pharmacodynamics, antitumor activity, and correlation of monotherapy activity with genetic background. Mol Cancer Ther 11(4):873-87, 2012”). […] Cells were then permeabilised by the overnight addition of saponin (0.03% final concentration, diluted in TBS-EDTA buffer) and a total cell count measured. […]

The next assay has as its system H2009 cell line. Description: Combination cell growth inhibition (Sytox Green, Loewe synergy), H2009.
Description: as §1, §2, §3

For another assay, the system named is Calu6 cell line. Description: Combination cell growth inhibition (Sytox Green, Loewe synergy), Calu6.
Description: as §1, §2, §3

Another assay deals with H2122 cell line. The experiment in a line: Combination cell growth inhibition (Sytox Green, Loewe synergy), H2122.
Description: as §1, §2, §3

On to `COC[C@H]1Cn2cc(-c3nc(Nc4ccnn4C)ncc3C)nc2C(=O)N1Cc1ccc(F)c(F)c1` [Example 18, (R)-7-(3,4-Difluorobenzyl)-6-(methoxymethyl)-2-(5-methyl-2-((1-methyl-1H-pyrazol-5-yl)amino)pyrimidin-4-yl)-6,7-dihydroimidazo[1,2-a]pyrazin-8(5H)-one], for which the Synergy score was determined as 25 with A549 cell line, 67.5 in the assay on H2009 cell line, 3 with Calu6 cell line and 14.3 with H2122 cell line.
